Test results as given in ChEMBL document CHEMBL3297666, “Antibacterial inhibitors of Gram-positive thymidylate kinase: structure-activity relationships and chiral preference of a new hydrophobic binding region” (J Med Chem, 2014).
Activity calls are given as the source filed them. No cut-off for these calls is given here.

Tests used:
[1] = Inhibition of Staphylococcus aureus TMK assessed as decrease in ATP production using dTDP and ADP as substrate after 3.5 hrs by luciferin/luciferase based luminescence analysis
Staphylococcus aureus [2] = test: Antibacterial activity against methicillin-resistant and quinolone-resistant Staphylococcus aureus ARC 517 assessed as growth inhibition by broth microdilution method; format: functional
Staphylococcus aureus [3] = test: Antibacterial activity against Staphylococcus aureus assessed as log cell killing at greater than and equals to 0.5x MIC measured after 4 hrs; format: functional
[4] = Octanol-sodium phosphate buffer partition coefficient, log D of the compound at pH 7.4 by shake-flask method
Staphylococcus aureus [5] = test: Antibacterial activity against Staphylococcus aureus assessed as bacterial killing; format: functional, organism-based
Staphylococcus aureus [6] = test: Antibacterial activity against Staphylococcus aureus ARC 516 assessed as growth inhibition by broth microdilution method; format: functional
Staphylococcus aureus [7] = test: Antibacterial activity against Staphylococcus aureus assessed as bacterial killing at 0.5 to 1x MIC measured after 24 hrs; format: functional, organism-based
[8] = Retention time of the compound by LC-MS method; format: physicochemical
[9] = Fraction unbound in human plasma at 10 uM after 5 hrs by rapid equilibrium dialysis method; format: ADME, cell-free
Enterococcus faecalis = test: Antibacterial activity against vancomycin-resistant Enterococcus faecalis ARC 1618 assessed as growth inhibition by broth microdilution method; format: functional
Streptococcus pneumoniae = test: Antibacterial activity against Streptococcus pneumoniae ARC 2481 assessed as growth inhibition by broth microdilution method; format: functional
[10] = Fraction unbound in mouse plasma at 10 uM after 5 hrs by rapid equilibrium dialysis method; format: ADME, cell-free
Escherichia coli = test: Antibacterial activity against Escherichia coli ARC 523 assessed as growth inhibition by broth microdilution method; format: functional
Pseudomonas aeruginosa = test: Antibacterial activity against Pseudomonas aeruginosa ARC 545 assessed as growth inhibition by broth microdilution method; format: functional
[11] = Cytotoxicity against human A549 cells; format: cell-based; conditions: read-out: MIC
Enterococcus faecium = test: Antibacterial activity against linezolid-resistant Enterococcus faecium ARC 1239 assessed as growth inhibition by broth microdilution method; format: functional
[12] = Ratio of IC50 for human […] to IC50 for Staphylococcus aureus TMK
[13] = In vivo clearance in Wistar rat at 5 to 10 mg/kg, iv administered as bolus dose; format: ADME, organism-based; design: dose 5-10 mg/kg, route intravenous
Streptococcus pyogenes = test: Antibacterial activity against Streptococcus pyogenes ARC 2834 assessed as growth inhibition by broth microdilution method; format: functional
[14] = tested on: Staphylococcus epidermidis; test: Antibacterial activity against Staphylococcus epidermidis ARC 323 assessed as growth inhibition by broth microdilution method; format: functional
Staphylococcus aureus [15] = test: Antibacterial activity against methicillin-sensitive Staphylococcus aureus ARC 516 in mouse neutropenic thigh infection model assessed as inhibition of progression of bacterial infection at 100 to 200 mg/kg/day, ip administered once daily starting 2 hrs after infection measured 24 hrs after drug dosing; format: functional, organism-based
[16] = fT>MIC in mouse neutropenic thigh infection model infected with methicillin-sensitive Staphylococcus aureus ARC 516; design: species or system Thigh muscle
Staphylococcus aureus [17] = test: Antibacterial activity against methicillin-sensitive Staphylococcus aureus ARC 516 in mouse neutropenic thigh infection model assessed as reduction in number of colony-forming units at 400 mg/kg/day, ip administered bid every 12 hrs as equal divided dose starting 2 hrs after infection measured 24 hrs after drug dosing relative to control; format: functional; conditions: route intraperitoneal

SMILES | IC50 [1] [nM] | MIC (Staphylococcus aureus [2]) [µg/mL] | logD [4] | MIC (Staphylococcus aureus [6]) [µg/mL] | Retention_time [8] [min] | fraction unbound at 5 h, 10 µM [9] | other results
Cc1cn([C@H]2CCCN(Cc3cccc(Oc4cccc(Cl)c4)c3)C2)c(=O)[nH]c1=O | 1170 |  |  |  |  |  | 
CC[C@H](c1ccc(C(=O)O)c(Oc2cccc(Cl)c2)c1)N1CCC[C@H](n2cc(C)c(=O)[nH]c2=O)C1 | 14 | 2 | 0.22 | 2 |  |  | LCK (Staphylococcus aureus [3]): >3; Activity (Staphylococcus aureus [5]): Dose-dependent effect; Activity (Staphylococcus aureus [7]): inactive
CC(C)CC(O)c1ccc(Br)c(F)c1F (stereo not given) |  |  |  |  | 3.24 |  | 
CCC[C@H](c1ccc(C(=O)O)c(Oc2cccc(Cl)c2)c1OC)N1CCC[C@H](n2cc(C)c(=O)[nH]c2=O)C1 | 30 | > 16 | 0.08 | > 16 | 2.18 | 0.034 | 
Cc1c(CN2CCC[C@H](n3cc(C)c(=O)[nH]c3=O)C2)cccc1Oc1cc(F)cc(Cl)c1 | 9260 |  |  |  | 2.3 |  | 
CC[C@@H](c1ccc(C(=O)O)c(Oc2cccc(Cl)c2)c1OC)N1CCC[C@H](n2cc(C)c(=O)[nH]c2=O)C1 | 3 | 2 | -0.02 | 4 | 1.65 | 0.11 | MIC (Enterococcus faecalis): > 8 µg/mL; MIC90 (Streptococcus pneumoniae): 2 µg/mL; fraction unbound at 5 h, 10 µM [10]: 0.011; MIC (Escherichia coli): > 64 µg/mL; MIC90 (Staphylococcus aureus [2]): 4 µg/mL; MIC (Pseudomonas aeruginosa): > 64 µg/mL; MCC [11]: > 64 µg/mL; MIC (Enterococcus faecium): 8 µg/mL; MIC90 (Staphylococcus aureus [6]): 4 µg/mL; Ratio IC50 [12]: > 25000; clearance [13]: 73 mL/min/kg; MIC90 (Streptococcus pyogenes): 4 µg/mL; MIC [14]: 4 µg/mL
CCOc1c(CN2CCC[C@H](n3cc(C)c(=O)[nH]c3=O)C2)cccc1Oc1cc(F)cc(Cl)c1 | 625 |  |  |  | 2.32 |  | 
Cc1cn([C@H]2CCCN(Cc3ccc(C(=O)O)c(Oc4cccc(Cl)c4)c3F)C2)c(=O)[nH]c1=O | 12 | 16 | -0.59 | 32 | 1.89 |  | 
CCCc1c(CN2CCC[C@H](n3cc(C)c(=O)[nH]c3=O)C2)cccc1Oc1cc(F)cc(Cl)c1 | 67400 |  |  |  | 2.5 |  | 
CCC[C@@H](c1ccc(C(=O)O)c(Oc2cccc(Cl)c2)c1OC)N1CCC[C@H](n2cc(C)c(=O)[nH]c2=O)C1 | 4 | 4 | 0.13 | 8 |  | 0.065 | 
CCC[C@@H](c1ccc(C(=O)O)c(Oc2cccc(Cl)c2)c1F)N1CCC[C@H](n2cc(C)c(=O)[nH]c2=O)C1 | 3 | 0.5 | 0.51 | 1 | 1.86 | 0.007 | fraction unbound at 5 h, 10 µM [10]: 0.007; clearance [13]: 18 mL/min/kg
CC[C@@H](c1ccc(C(=O)O)c(Oc2cccc(Cl)c2)c1F)N1CCC[C@H](n2cc(C)c(=O)[nH]c2=O)C1 | 3 | 1 | 0.11 | 4 | 1.72 | 0.011 | 
Cc1cn([C@H]2CCCN(Cc3cccc(Oc4cc(F)cc(Cl)c4)c3)C2)c(=O)[nH]c1=O | 2060 |  |  |  |  |  | 
Cc1cn([C@H]2CCCN(C(CC(C)C)c3ccc(C#N)c(Oc4cccc(Cl)c4)c3F)C2)c(=O)[nH]c1=O (stereo not given in full) |  |  |  |  | 2.62 |  | 
CCC(c1ccc(C(=O)O)c(Oc2cccc(Cl)c2)c1OC)N1CCC[C@H](n2cc(C)c(=O)[nH]c2=O)C1 (stereo not given in full) |  |  |  |  | 2.29 |  | 
Cc1cn([C@H]2CCCN(C(CC(C)C)c3ccc(Br)c(F)c3F)C2)c(=O)[nH]c1=O (stereo not given in full) |  |  |  |  | 3.1 |  | 
Cc1cn([C@H]2CCCN([C@@H](CC(C)C)c3ccc(C(=O)O)c(Oc4cccc(Cl)c4)c3F)C2)c(=O)[nH]c1=O | 1 | 0.5 | 0.57 | 0.5 | 2 | 0.007 | MIC (Enterococcus faecalis): 4 µg/mL; inhibition (Staphylococcus aureus [15]): Active; MIC90 (Streptococcus pneumoniae): 0.13 µg/mL; fraction unbound at 5 h, 10 µM [10]: 0.005; MIC (Escherichia coli): > 64 µg/mL; fT>MIC [16]: 27%; MIC (Pseudomonas aeruginosa): > 64 µg/mL; MIC (Enterococcus faecium): 2 µg/mL; Ratio IC50 [12]: > 25000; clearance [13]: 38 mL/min/kg; MIC (Streptococcus pyogenes): 2 µg/mL; fold change (FC) (Staphylococcus aureus [17]): 10; MIC [14]: 4 µg/mL
COc1c(CN2CCC[C@H](n3cc(C)c(=O)[nH]c3=O)C2)cccc1Oc1cc(F)cc(Cl)c1 | 474 |  |  |  | 3 |  | 
O=Cc1cccc(Oc2cccc(Cl)c2)c1F |  |  |  |  | 2.88 |  | 
